Laboratory results: ChEMBL document CHEMBL1201862, “PubChem BioAssay data set” (2004)
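Five concentrations, 48 hours, 96-well plates. The concentration for 50% growth inhibition is given as GI50.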 Activity calls are given as the source filed them. No stated cut-off is given here; in the data, active = GI50 up to about 1.1 µM and inactive = higher.

Tests used:
Experiment in all cases: DTP human tumour cell line panel, 48 h
786-0 = tested on: 786-0
BT-549 = tested on: BT-549
COLO 205 = tested on: COLO 205
HCC 2998 = tested on: HCC 2998
HCT-15 = tested on: HCT-15
HL-60 = tested on: HL-60
HT-29 = tested on: HT-29
KM12 = tested on: KM12
MOLT-4 = tested on: MOLT-4
NCI/ADR-RES = tested on: NCI/ADR-RES
PC-3 = tested on: PC-3
RXF 393 = tested on: RXF 393
SF-268 = tested on: SF-268
SK-OV-3 = tested on: SK-OV-3
SR = tested on: SR
T47D = tested on: T47D
ACHN = tested on: ACHN
NCI-H23 = tested on: NCI-H23
CCRF-CEM = tested on: CCRF-CEM

Row | Compound | GI50 (786-0) | GI50 (BT-549) | GI50 (COLO 205) | GI50 (HCC 2998) | GI50 (HCT-15) [µM] | GI50 (HL-60) | GI50 (HT-29) | GI50 (KM12) | GI50 (MOLT-4) | GI50 (NCI/ADR-RES) | GI50 (PC-3) | GI50 (RXF 393) | GI50 (SF-268) | GI50 (SK-OV-3) | GI50 (SR) | GI50 (T47D) | GI50 (ACHN) | GI50 (NCI-H23) | GI50 (CCRF-CEM)
1 | S=c1nc2[nH]c3ccc(Br)cc3c2n[nH]1 | 35.2 µM (inactive) | 50.2 µM (inactive) | 98.4 µM (inactive) | > 100 µM (inactive) | 22.1 | 12 µM (inactive) | 35 µM (inactive) | 29.2 µM (inactive) | 30.3 µM (inactive) | 39.8 µM (inactive) | 43.1 µM (inactive) | > 100 µM (inactive) | 27.9 µM (inactive) | > 100 µM (inactive) | 19 µM (inactive) | > 100 µM (inactive) |  |  | 
2 | O=c1[nH]c(-c2ccc(Cl)cc2)cc2ccsc12 |  | 4.82 µM (inactive) | 9.82 µM (inactive) | 2.31 µM (inactive) | 2.26 | 2.94 µM (inactive) | 4.07 µM (inactive) | 3.21 µM (inactive) | 3.78 µM (inactive) | 3.56 µM (inactive) | 8.83 µM (inactive) | 12.2 µM (inactive) | 9.23 µM (inactive) | 4.9 µM (inactive) | 0.506 µM (active) | 2.37 µM (inactive) | 6.03 µM (inactive) | 4.92 µM (inactive) | 
3 | Cc1cccc(NC(=S)Nc2ccccc2Cl)n1 | 34.3 µM (inactive) | 59.7 µM (inactive) | > 100 µM (inactive) |  | 76.9 | > 100 µM (inactive) | > 100 µM (inactive) | 25.8 µM (inactive) | > 100 µM (inactive) | 49 µM (inactive) | > 100 µM (inactive) | 20.7 µM (inactive) | 28.7 µM (inactive) | 25.8 µM (inactive) | > 100 µM (inactive) | 29 µM (inactive) |  |  | > 100 µM (inactive)
4 | CC(C)C(C/C=C1\CC(CO)(COC(=O)C(C)(C)C)OC1=O)C(C)C (centres undefined) | 2.65 µM (inactive) | 11.5 µM (inactive) | 1.64 µM (inactive) | 7.03 µM (inactive) | 13.4 |  | 19.3 µM (inactive) | 12.7 µM (inactive) | 0.581 µM (active) | 13.6 µM (inactive) | 5.05 µM (inactive) | 15.6 µM (inactive) | 13.2 µM (inactive) | 15.1 µM (inactive) | 11.5 µM (inactive) | 15.1 µM (inactive) | 11 µM (inactive) | 4.9 µM (inactive) | 10.6 µM (inactive)
5 | CCOC(=O)c1cn2c(n1)sc1cc(F)ccc12 | 52.8 µM (inactive) | 77.6 µM (inactive) | > 100 µM (inactive) | > 100 µM (inactive) | > 100 |  | 82.8 µM (inactive) | 62.8 µM (inactive) | > 100 µM (inactive) | > 100 µM (inactive) | > 100 µM (inactive) | 85.1 µM (inactive) | 82.2 µM (inactive) | > 100 µM (inactive) | 16.1 µM (inactive) | > 100 µM (inactive) | > 100 µM (inactive) | > 100 µM (inactive) | > 100 µM (inactive)
6 | Nc1cc(N2CCOCC2)nc(=O)n1-c1ccccc1 | > 100 µM (inactive) | > 100 µM (inactive) | > 100 µM (inactive) | > 100 µM (inactive) | > 100 | 21.4 µM (inactive) | > 100 µM (inactive) | > 100 µM (inactive) | > 100 µM (inactive) | > 100 µM (inactive) | > 100 µM (inactive) |  |  | > 100 µM (inactive) | > 100 µM (inactive) | > 100 µM (inactive) | > 100 µM (inactive) | > 100 µM (inactive) | > 100 µM (inactive)
7 | Nc1ncc(CN2CCOCC2)c(-c2ccccc2O)n1 | > 100 µM (inactive) | > 100 µM (inactive) | > 100 µM (inactive) |  | > 100 | > 100 µM (inactive) | > 100 µM (inactive) | > 100 µM (inactive) | > 100 µM (inactive) | > 100 µM (inactive) | > 100 µM (inactive) | > 100 µM (inactive) | > 100 µM (inactive) | > 100 µM (inactive) | > 100 µM (inactive) | > 100 µM (inactive) | > 100 µM (inactive) | > 100 µM (inactive) | > 100 µM (inactive)
8 | O=C1/C(=C\c2ccc(O)cc2)CCC/C1=C/c1ccc(Cl)c(Cl)c1 | 2.43 µM (inactive) | 2.77 µM (inactive) | 1.76 µM (inactive) | 2.31 µM (inactive) | 2.96 | 1.96 µM (inactive) | 1.63 µM (inactive) | 1.7 µM (inactive) | 1.82 µM (inactive) | 2.03 µM (inactive) | 3.57 µM (inactive) | 2.38 µM (inactive) | 3.35 µM (inactive) | 4.37 µM (inactive) |  | 11.5 µM (inactive) | 3.52 µM (inactive) | 3.13 µM (inactive) | 0.374 µM (active)
9 | CCOC(=O)/C(C#N)=C/c1ccc2c(-c3c(OCC)ccc4cc(/C=C(\C#N)C(=O)OCC)ccc34)c(OCC)ccc2c1 | > 100 µM (inactive) | > 100 µM (inactive) | > 100 µM (inactive) | > 100 µM (inactive) | > 100 | > 100 µM (inactive) | > 100 µM (inactive) | > 100 µM (inactive) | > 100 µM (inactive) | > 100 µM (inactive) | > 100 µM (inactive) | > 100 µM (inactive) | > 100 µM (inactive) | > 100 µM (inactive) |  | > 100 µM (inactive) | > 100 µM (inactive) | > 100 µM (inactive) | > 100 µM (inactive)
10 | COc1ccc(/C(CCl)=C(\Nc2ccccc2)c2ccc(OC)c(OC)c2)cc1OC | > 100 µM (inactive) | > 100 µM (inactive) | > 100 µM (inactive) | > 100 µM (inactive) | > 100 | 27.2 µM (inactive) | > 100 µM (inactive) | > 100 µM (inactive) | 28.6 µM (inactive) | > 100 µM (inactive) | 65 µM (inactive) | 36.1 µM (inactive) | > 100 µM (inactive) | > 100 µM (inactive) |  | 27.7 µM (inactive) | 45.3 µM (inactive) | 49.3 µM (inactive) | 97.9 µM (inactive)
11 | CCOC(=O)c1cc2c([N+](=O)[O-])c(N)ccc2s1 | > 100 µM (inactive) | > 100 µM (inactive) | > 100 µM (inactive) | > 100 µM (inactive) | > 100 | > 100 µM (inactive) | > 100 µM (inactive) | > 100 µM (inactive) | > 100 µM (inactive) | > 100 µM (inactive) | > 100 µM (inactive) | > 100 µM (inactive) | > 100 µM (inactive) | > 100 µM (inactive) |  | > 100 µM (inactive) | > 100 µM (inactive) | > 100 µM (inactive) | > 100 µM (inactive)
12 | S=C1c2ccc(Cl)cc2-n2cnnc2C2CSCN12 (centres undefined) | > 100 µM (inactive) | > 100 µM (inactive) | > 100 µM (inactive) | > 100 µM (inactive) | > 100 |  | > 100 µM (inactive) | > 100 µM (inactive) | > 100 µM (inactive) | > 100 µM (inactive) | > 100 µM (inactive) | > 100 µM (inactive) | > 100 µM (inactive) | > 100 µM (inactive) | 52.4 µM (inactive) | > 100 µM (inactive) | > 100 µM (inactive) |  | > 100 µM (inactive)
